Consider five compounds from ChEMBL document CHEMBL1144066, “Aurantosides D, E, and F: new antifungal tetramic acid glycosides from the marine sponge Siliquariaspongia japonica” (J Nat Prod, 1999).

For one experiment, the system named is P388. As to the kind of experiment: Cytotoxicity against mouse P388 cells. Type of experiment: functional, cell-based.
In experiment [1] the test system is Candida albicans. In words: Antifungal activity against Candida albicans at 2 ug/disk. Type of experiment: functional. The conditions noted are these: for zone of inhibition at 2 µg/disc: read-out: IZ.
The subject of experiment [2] is Aspergillus fumigatus. In words: Antifungal activity against Aspergillus fumigatus at 2 ug/disk. Type of experiment: functional. The conditions noted are these: read-out: IZ.
In experiment [3] the test system is Candida albicans. In words: Antifungal activity against Candida albicans. Type of experiment: functional.
The subject of experiment [4] is Aspergillus fumigatus. In words: Antifungal activity against Aspergillus fumigatus. The class given is functional.

Values after ≈ are worked out from the molar mass of the structure shown. Active and inactive are the calls of the source. The rule behind the calls is not given here.

Turning to `CO[C@@H]1[C@H](O[C@@H]2CO[C@@H](O[C@@H]3[C@@H](O)[C@H](O)CO[C@H]3N3C(=O)/C(=C(O)/C=C/C=C/C=C/C=C/C=C(Cl)/C=C(\C)Cl)C(=O)[C@@H]3CC(N)=O)[C@@H](O)[C@@H]2O)O[C@H](C)[C@H]1O` [AURANTOSIDE A], the IC50 in the experiment on P388 is over 5 µg/mL. In addition, the zone of inhibition at 2 µg/disc with Candida albicans [1] stood at 11.3 mm; in the experiment on Aspergillus fumigatus [2], 18 mm. Besides, the MIC in the experiment with Candida albicans [3] was determined as 1.25 µg/mL (≈ 1.53 µM); with Aspergillus fumigatus [4] it was 0.16 µg/mL (≈ 0.196 µM).
`C\C(Cl)=C/C(Cl)=C/C=C/C=C/C=C/C=C/C(O)=C1\C(=O)[C@H](CC(N)=O)N([C@@H]2OC[C@@H](O)[C@H](O)[C@H]2O[C@@H]2OC[C@@H](O[C@@H]3O[C@H](C)[C@@H](O)[C@@H]3O)[C@@H](O)[C@@H]2O)C1=O` [AURANTOSIDE B] gave an IC50 in the experiment on P388 of over 5 µg/mL. Also, the zone of inhibition at 2 µg/disc with Candida albicans [1] stood at 11.8 mm; in the experiment with Aspergillus fumigatus [2], 17.2 mm. The MIC in the experiment with Candida albicans [3] was found to be 0.63 µg/mL (≈ 0.784 µM); against Aspergillus fumigatus [4], 0.16 µg/mL (≈ 0.199 µM).
As for `C/C(Cl)=C/C=C/C(Cl)=C/C=C/C=C/C=C/C=C/C(O)=C1\C(=O)[C@H](CC(N)=O)N([C@@H]2OC[C@@H](O)[C@H](O)[C@H]2O[C@@H]2OC[C@@H](O[C@@H]3O[C@H](C)[C@@H](O)[C@@H]3O)[C@@H](O)[C@@H]2O)C1=O` [AURANTOSIDE D], in the experiment with P388, the IC50 came out at 0.2 µg/mL (≈ 0.241 µM). For the same compound, the zone of inhibition at 2 µg/disc with Candida albicans [1] was determined as 9.5 mm; in the experiment with Aspergillus fumigatus [2] it was 11 mm.
Regarding `CO[C@@H]1[C@H](O[C@@H]2CO[C@@H](O[C@@H]3[C@@H](O)[C@H](O)CO[C@H]3N3C(=O)/C(=C(O)/C=C/C=C/C=C/C=C/C=C(Cl)/C=C/C=C/C=C(/C)Cl)C(=O)[C@@H]3CC(N)=O)[C@@H](O)[C@@H]2O)O[C@H](C)[C@H]1O`, the result in the experiment on Candida albicans [1] and with Candida albicans [3] was inactive.
On to `CO[C@@H]1[C@H](O[C@@H]2CO[C@@H](O[C@@H]3[C@@H](O)[C@H](O)CO[C@H]3N3C(=O)/C(=C(O)/C=C/C=C/C=C/C=C/C=C(Cl)/C=C/C=C(/C)Cl)C(=O)[C@@H]3CC(N)=O)[C@@H](O)[C@@H]2O)O[C@H](C)[C@H]1O` [AURANTOSIDE E], for which, in the experiment with P388, half-maximal inhibition (IC50) was put at 0.2 µg/mL (≈ 0.237 µM). Also, the zone of inhibition at 2 µg/disc worked out at 9.7 mm with Candida albicans [1] and 13.6 mm in the experiment with Aspergillus fumigatus [2]. Further, the figures for the MIC against Candida albicans [3] and in the experiment on Aspergillus fumigatus [4] were 0.16 µg/mL (≈ 0.19 µM) and 0.04 µg/mL (≈ 0.0474 µM), respectively.

For orientation: IC50 means the midpoint of a concentration-inhibition curve. For orientation: MIC means the lowest concentration found to suppress growth. Low values mean inhibition by little substance, high ones a need for much substance.
